Test results from US20040087539A1, “Method of treating conditions related to platelet activity” (priority 2003, published 2004).

Key:
[1] = system: platelets; experiment: Ristocetin-induced vWF-dependent platelet aggregation in platelet-rich plasma; type: cell-based, human; settings: for integrin-dependent second wave of platelet aggregation induced by ristocetin: PRP preincubated 37° C. 5 min, KT5823 2 pM, Rp-8pCPT-cGMP 0.2 μM, KT5720 2 pM [sic], FIG. 3A
Protocol: (§1) Fresh blood from healthy volunteers was anticoagulated with 1/7 volume of ACD (2.5% trisodium citrate, 2% dextrose and 1.5% citric acid). Platelets were washed with CGS buffer (sodium chloride 0.12 M, trisodium citrate 0.0129 M and d-glucose 0.03 M, pH 6.5), resuspended in modified Tyrode's solution and allowed to incubate at 22° C. for 1 hours as previously described. In experiments using platelet-rich plasma (PRP), 1/10 volume of 3.8% trisodium citrate was used as anticoagulant. Platelet aggregation was measured using a turbidometric platelet aggregometer (Chrono-Log) at 37° C. vWF-dependent platelet aggregation was induced by addition of ristocetin or botrocetin to PRP. To differentiate CPIb-IX-mediated platelet agglutination from the second wave of integrin-dependent platelet aggregation, final concentrations of ristocetin were adjusted in each experiment to achieve a two-wave curve of aggregation. Washed platelets were used in platelet aggregation induced by a-thrombin (Enzyme Research Laboratories). To examine the effects of PKG, 100 μM of membrane permeable cGMP analogs, 8-bromo-cGMP or 8-dibutyl-cGMP (Calbiochem), or 1 μM sildenafil citrate (Pfizer) and added simultaneously with subthreshold concentrations of agonists. PKG inhibitors KT5823 (2 pM) and Rp-8PCPT-cGMP (0.2 mM) were preincubated with platelets at 37° C. for 5 minutes before addition of agonists.
(§2) In FIG. 3A, platelet rich-plasma (PRP) was preincubated at 37° C. for 5 mm with PKG inhibitors KT5823 (2 pM) or Rp-8pCPT-cGMP (0.2 μM). PRP was also incubated with DMSO (vehicle for KT5823), a PKA inhibitor, KT5720 (2 pM), or buffer (Control). The vWF modulator, ristocetin, was then added to induce vWF-GPIb-IX interaction. […] In FIG. 3B, a subthreshold concentration of ristocetin was added to PRP immediately followed by addition of 8-bromo-cGMP or buffer (Control). PRP also was preincubated with integrin inhibitor RGDS before adding ristocetin and 8-bromo-cGMP. In FIG. 3C, platelets were preincubated with or without PKG inhibitor KT5823, then allowed to spread on vWF-coated glass chamber slides. Platelets were stained with an anti-GPIb antibody, and fluorescein-labeled secondary antibody. The slides were imaged under a confocal microscope (magnification =630×).
(§3) In FIG. 6A, increasing concentrations of sildenafil or control 0.15 M NaCl solution were added to platelet-rich plasma followed by a subthreshold concentration of ristocetin. Platelet aggregation was recorded using a platelet aggregometer. In FIG. 6B, sildenafil or control buffer was added to washed platelets followed by addition of subthreshold doses of thrombin to induce platelet aggregation. It was noted that platelet aggregation occurs in the presence of sildenafil. The figure includes the representative results of at least three experiments.
(§4) In FIG. 7A, PRP was preincubated with 0.1 mM 8-bromo-cGMP for increasing lengths of time at 37° C. as indicated. The vWF modulator, ristocetin (1.25 mg/ml), then was added to induce platelet aggregation in a turbidometric platelet aggregometer. In FIG. 7B, PRP was preincubated with a high concentration of 8-bromo-cGMP (1 mM) for 5 minutes. Ristocetin then was added to induce platelet aggregation. In FIGS. 7C and 7D, washed platelets in modified Tyrode's solution were preincubated with 1 mM 8-bromo-cGMP (C), or various concentrations of 8-pCPT-cGMP (D) at 37° C. for 5 minutes. Thrombin (0.05 u/ml) then was added to induce platelet aggregation.

[2] = system: platelets; experiment: Low-dose α-thrombin-induced aggregation of washed platelets; type: cell-based, human; settings: for platelet aggregation induced by 0.05 units/ml α-thrombin: washed platelets preincubated 5 min, KT5823 2 μM, Rp-8pCPT-cGMP 0.2 mM, SZ2 40 pg/ml [sic], FIG. 5A
Protocol: as §1
In FIG. 5A, washed platelets were preincubated with 40 pg/mi anti-GPIba monoclonal antibody SZ2, integrin inhibitor RGDS, or inhibitors of PKG, KT5823 (2 μM) or Rp-8pCPT-cGMP (0.2 mM) (Calbiochem), for 5 min. Platelets also were preincubated with DMSO (vehicle for KT5823), KT5720 or buffer (Control) as controls. α-Thrombin (0.05 units/mi) then was added to induce platelet aggregation. Nonspecific JgG and RGES peptides also were examined as additional controls, but had no effect (not shown). In FIG. 5B, a subthreshold dose of thrombin was added to platelets immediately followed by addition of PKG activator 8-bromo-cGMP or buffer (Control). Shown in the figure are the representative results of at least three experiments.
as §3, §4

[3] = system: 123 cells (CHO cells expressing recombinant human GPIb-IX and integrin αIIbβ3); experiment: vWF-induced GPIb-IX-mediated activation of integrin αIIbβ3 (Oregon green-labeled fibrinogen binding, flow cytometry); type: cell-based, Chinese Hamster; settings: 123 cells; preliminary studies, data not shown
Protocol: Human PKG Iβ cDNA was cloned by RT-PCR, using human platelet mRNA as templates. Sequence of the human PKG Iβ cDNA fragment matches the published sequence. Cloning of human PKG Iα cDNA was described previously. PKG Iα or Iβ in pCDNA3.1/Zeo+vector was transfected into 123 cells (CHO cells expressing recombinant human CPIb-IX and integrin αIIbβ3 using Lipofectamine plus (BRL). Expression of PKG was assessed by Western blotting with an antihuman PKG I antibody (Calbiochem). The kinase activity of the expressed enzymes was measured in cell homogenates using BPDEtide (Calbiochem) as substrate as detailed previously. vWF-induced GPIb-IX-mediated activation of integrin αIIbβ3 was examined by flow cytometry analysis of Oregon green-labeled fibrinogen binding to integrln αIIbβ3 as described previously. Briefly, cells were detached from tissue culture plate using 0.5 mM EDTA, washed at 4° C. and resuspended in modified Tyrode's solution. Cells then were incubated with Oregon green-labeled fibrinogen (20 μg/ml) in the presence of ristocetin and vWF at 22° C. for 30 minutes, and analyzed by FACScalibur flow cytometer. Nonspecific binding of fibrinogen was estimated by measuring fibrinogon binding in the presence of a specific integrin inhibitor RGDS (1 mM) (see Refs. 13 and 43-45).
In FIG. 1A, CHO cells expressing GPLb-JX and integrin αIIbβ3 (123 cells) were transfected with cDNA encoding PKGIα or vector. Expression of PKG Ia in 123 cells was detected by Western blotting with an anti-human PKG I antibody (Insert), and recombinant PKG activity was determined in the absence or presence of 20 μM 8-bromo-cGMP as previously described. Results are expressed as mean +SD (n=3). For FIGS. 1B and 1C, reconstitution of GPIb-IX-mediated integrin activation in CHO cells was published (see Ref. 13). […] Cells were analyzed by flow cytometry. Quantitative results from three experiments are expressed as fibrinogen binding indices (total bound fluorescence (Fg)/nonspecifically bound fluorescence (Fg+RGDS)), and shown in FIG. 1B (mean ±SD).

[4] = system: platelets; experiment: Platelet spreading on vWF-coated surface; type: cell-based, human; settings: FIG. 3C
Protocol: Platelets were allowed to adhere and spread on 10 μg/ml vWF-coated glass chamber slides (Nunc) at 37° C. for 1 hour. After three washes, platelets were fixed by adding 4% paraformaldehyde in PBS. Platelets were permeabilized by adding 0.1 M Tris, 0.01 M EGTA, 0.15 M NaCl, 5 mM MgCl2, pH 7.4, containing 0.1% Triton X-100, 0.5 mM leupeptin, 1 mM PMSF, and 0.1 mM E64, and then incubated with 20 μg/ml of anti-GPIba antibody (anti-IbαC) at 22° C. for 1 hour. Platelets were further incubated with fluorescein-labeled secondary antibody at 22° C. for 30 mm. After additional washes, platelets were scanned under a Zeiss LSM 510 confocai microscope (Magnification=630×).
as §2, with “Platelets were stained with an anti-GPIb antibody, and fluorescein-labeled secondary antibody. The slides were imaged under a confocal microscope (magnification =630×).” left out

[5] = system: platelets; experiment: Measurement of cGMP formation in washed platelets (enzyme immunoassay); type: cell-based, human; settings: ristocetin plus vWF 15 μg/ml or glyco-SNAP1 100 μM, 5 minutes, FIG. 4
Protocol: Washed platelets (3×10^8/ml) resuspended in 400 μl Tyrode's buffer were stirred at 37° C. after addition of control buffer, 1 mg/mi ristocetin alone, 15 pg/mi vWF and 1 mg/mi ristocetin, or 100 μM glyco-SNP1. The reaction was stopped by addition of 400 μl of ice-cold 12% (w/v) trichloroacetic acid. Samples were mixed and centrifuged at 2000×g for 15 ruin at […]. Supenatant was removed and washed with 5 volumes of water-saturated diethyl ether 4 times, and then lyophilized. cGMP levels were measured using a cGMP enzyme immunoassay kit from Amersham-Pharmacia Biotech.
Washed platelets (3×10^8/ml) were preincubated at 37° C. for 10 mm with buffer, control JgG, a monoclonal antibody against GPIba, AK2. Platelets then were further incubated in a platelet aggregometer for 5 minutes after addition of buffer (Control), 1.25 mg/ml ristocetin only (Risto), ristocetin plus vWF (vWF) (15 μg/ml) or glyco-SNAP1 (100 μM). The reaction was stopped by addition of 400 μl of ice-cold 12% (w/v) trichloroacetic acid. CGMP concentrations were determined using a cGMP enzyme immunoassay kit. Results are expressed as mean ±SD (n=3).

[6] = system: CHO cells expressing human platelet receptors; experiment: Cell adhesion to immobilized vWF under flow; type: cell-based, Chinese Hamster; settings: sildenafil 5 μM, RGDS 4 mM
Protocol: CHO cells expressing human platelet receptors were resuspended in modified Tyrode's buffer, pH 7.4, containing 1 mg/mi of bovine serum albumin (BSA) (see Ref. 46), and final cell count was 5×10^5/ml. […] Purified human vWF (10 μg/ml in 0.1 M NaHCO3, pH 8.3) was added to glass microcapillary tubes (inner diameter of 1.33 mm and a length of 7.2 cm), and incubated at 4° C. for 20 h. The vWF-coated microcapillary tubes then were incubated with 5% BSA. After washing, the cell suspension was aspirated through the tube by a syringe pump (Harvard Apparatus Inc.) at desired shear rates for 1.2 minutes and washed with modified Tyrode's buffer for additional 10 minutes at the same shear rates to remove transiently adherent cells. The experiments were continuously recorded on videotape using a video cassette recorder (model 9500, Sony). The number of stably adherent cell on immobilized vWF was counted on images obtained at 20 randomly selected positions in the vWF-coated tubes.
In FIGS. 2A and B, vWF-coated capillary tubes were perfused with equivalent numbers (5×10^5/ml) of CHO cells expressing recombinant GPLb-JX alone (1b9), integrin αIIbβ3 alone (2b3a), both GPIb-IX and integrin αIIbβ3 (123) or expressing GPJb-JX, integrin α^IIbβ3 and PKG Ia (123PKG) at a shear rates of 800 s^−1 (A) or 1500 s^−1 (B) for 1.2 minutes, and then perfused with the modified Tyrodes buffer for 10 minutes at the same shear rates to wash out transient adherent cells. The expenments were recorded in real time. Cells stably adherent to vWF-coated capillary tubes at 20 randomly selected locations were counted.
In FIG. 2C, vector-transfected 123 cells (123) or 123PKG cells also was perfused into vWF-coated glass capillary tubes as described in FIG. 2A in the absence or presence (+RGDS) of an integrin inhibitor RGDS peptide (4 mM) and in the absence (Control) or presence of cGMP-enhancing drug, sildenafil (5 μM). […] The experiments were repeated at least three times.

Molecule: Nc1nc2c(nc(Sc3ccc(Cl)cc3)n2C2O[C@@H]3COP(=O)(O)O[C@H]3[C@H]2O)c(=O)[nH]1 (stereo in doubt) [8-pCPT-cGMP]
- platelet aggregation together with a subthreshold concentration of ristocetin ([1]; PRP, agent added with subthreshold ristocetin (1 mg/mm [sic]) (or botrocetin), FIGS. 3B, 6A): induced integrin-dependent platelet aggregation
- preincubation time required to inhibit platelets ([2]; 0.5 mM 8-pCPT-cGMP, washed platelets, thrombin 0.05 u/ml, FIG. 7D): less than 5 minutes

Molecule: CCCCCCOC(=O)[C@]1(O)C[C@@H]2O[C@@]1(C)n1c3ccccc3c3c4c(c5c6ccccc6n2c5c31)C(=O)NC4 [KT5720]
- integrin-dependent second wave of platelet aggregation induced by ristocetin [1]: no inhibitory effects

Molecule: COC(=O)[C@@]1(OC)C[C@H]2O[C@]1(C)n1c3ccccc3c3c4c(c5c6ccccc6n2c5c31)C(=O)N(C)C4 [KT5823]
- GPIb-IX-mediated integrin activation [3]: inhibited
- integrin-dependent second wave of platelet aggregation induced by ristocetin [1]: abolished
- platelet aggregation induced by 0.05 units/ml α-thrombin [2]: inhibited
- platelet spreading on a vWF-coated surface [4]: inhibited

Molecule: Nc1nc2c(nc(Sc3ccc(Cl)cc3)n2C2OC3COP(O)(=S)OC3C2O)c(=O)[nH]1 (stereo not drawn) [Rp-8-pCPT-cGMP]
- integrin-dependent second wave of platelet aggregation induced by ristocetin [1]: inhibited
- platelet aggregation induced by 0.05 units/ml α-thrombin [2]: inhibited

Molecule: CC(=O)NC(C(=O)NC1OC(CO)C(O)C(O)C1O)C(C)(C)SN=O (stereo not drawn) [glyco-SNAP1]
- platelet cGMP levels [5]: comparable

Molecule: RGDS
- platelet aggregation induced by 0.05 units/ml α-thrombin [2]: inhibited
- stable adhesion of PKG-expressing 123 cells (123PKG) to vWF under flow ([6]; FIG. 2C, 8-bromo-cGMP not shown): inhibited
- stable adhesion of sildenafil-treated 123 cells to vWF under flow [6]: inhibited

Molecule: RGES
- platelet aggregation induced by 0.05 units/ml α-thrombin [2]: no effect

Molecule: vWF: purified human von Willebrand factor, ligand of GPIb-IX
- platelet cGMP levels [5]: dramatic increase
